Data on 2 substances can be found in article PMC7717616, “A nanobody-derived mimotope against VEGF inhibits cancer angiogenesis” (Journal of Enzyme Inhibition and Medicinal Chemistry, 2020).

pIC50: −log10 of the molar value. Read-outs that look alike come from different tables or passages of the source. Square brackets hold non-standard residues; d marks the D form. Ends that are not written are not given here. Abu = CC[C@H](N)C(=O)O

For experiment [1], the system named is HUVEC cells. In words: MTT assay, inhibition of HUVEC proliferation. Format: cell-based. The settings on record: for pIC50: HUVEC growth; for inhibition of cell growth, 24 h / inhibition of cell growth, 48 h: 1000 nM. As to the method:
The HUVEC cell line was purchased from the Pasteur Institute of Iran and was transferred in DMEM media enriched with 10% Foetal Bovine Serum (FBS, Gibco). The cells were then added into T25 cell culture flasks and incubated at a temperature of 37 °C in the presence of 5% CO2. After 3–5 days, confluency of the cells was assessed. At 90% of confluency, cells were removed from the flask by trypsin treatment until their use in following experiments.
About 10^4 of HUVEC cells were suspended in […] of culture media enriched with 2% FBS, and were then transferred to 96-well plates, followed by an incubation at a temperature of 37 °C for 2 h. After incubation at a temperature of 37 °C in the presence of 5% CO2, various concentrations of nanobody and peptide (0–1000 nM) were added to cells, followed by an incubation for 24 and 48 h, respectively. Bevacizumab was used as positive control. After incubation, an MTT (3–(4,5-Dimethylthiazol-2-yl)-2,5-Diphenyltetrazolium Bromide) solution was added to each well and incubated for 4 h. Thereafter, MTT was removed and DMSO (dimethylsulfoxide) was added to the wells. Plates were incubated on shaker for 30 min, and optical densities (OD) were then measured using a spectrophotometer (Epoch).
(§1) Prism 5.0 Software (GraphPad, San Diego, CA) was used for statistical analysis. T test was performed for comparison between two groups. The statistical were considered significant when p values < .05.
In general terms: Tetrazolium dyes change colour on reduction, which living cells bring about.

The test system of experiment [2] is HUVEC cells. In words: Tube formation assay with HUVEC cells and VEGF. The experiment is classed as cell-based. The settings on record: HUVEC on Geltrex, nanobody/peptide 1000 nM, VEGF 50 ng/ml, 4–8 h, 37 °C; control with VEGF alone formed complete tubes; Image J. As to the method:
About 50 µl of Geltrex LDEV lacking growth factor (Gibco, Invitrogen) were added to 96-well plate followed by a 30–60 min period of incubation at a temperature of 37 °C. One thousands nM of nanobody and peptide were added in two separate microtubes. Then, 50 ng/ml of VEGF were added to the tubes and incubated at a temperature of 37 °C for 1 h. Bevacizumab was as positive control. About 10^4 of HUVEC cells with DMEM culture media plus each microtube’s mixture were seeded in 96-well plates containing Geltrex. Plates were incubated for 4–8 h (temperature of 37 °C in the presence of 5% CO2). After incubation, cells were assessed according to their conditions of tube formation, and tube-like structures analysed by Image J software.
as §1

Where [3] appears, read: 0–1000 nM, 24 h, read-out: IC50 (24 h).
[4] abbreviates: 0–1000 nM, 48 h, read-out: IC50 (48 h).

For orientation: pIC50 means the IC50 on a negative log10 scale, so that one unit is a factor of ten. For “YY[Abu]AARAWSPYSSTVDAGDFRYWGQ-NH2 [peptide, designed 25-mer peptide from the CDR3 region of the VEGF nanobody]”, the pIC50 in experiment [1] (setting [3]) is 6.46; in experiment [1] (setting [4]), 6.70. Moreover, the “dose dependence of inhibition of cellular proliferation (in words)” value in experiment [1] (HUVEC, 0–1000 nM) was “dose dependent”. Besides, in experiment [1] (HUVEC, 24 h), the “inhibition of cell growth, 24 h” value was 77%. In experiment [1] (HUVEC, 48 h), the “inhibition of cell growth, 48 h” value came to 91%. Also, the “time dependence of effect (in words)” value in experiment [1] (HUVEC, 24 and 48 h) is “time dependent”. Moreover, the tube-like structures formed in experiment [2] was found to be 35%.
For “Bevacizumab: Bevacizumab (positive control)”, the pIC50 in experiment [1] (setting [3]) is 6.70; in experiment [1] (setting [4]), 6.82. Besides, the “inhibition of cell growth, 24 h” value in experiment [1] (HUVEC, 24 h) was determined as 87%. The “inhibition of cell growth, 48 h” value in experiment [1] (HUVEC, 48 h) was 97%. Also, in experiment [2], the tube-like structures formed stood at 20%.
